# Reference: publication PMC8066331, “Anticancer Activity of Triazolo-Thiadiazole Derivatives and Inhibition of AKT1 and AKT2 Activation” (Pharmaceutics, 2021)
# Experiments:
# HT-29 = assay: MTT in vitro antiproliferative assay, HT-29; format: cell-based, human; settings: HT-29, MTT; for IC50 / GI50: Homo sapiens; for IC50: 48 h, 50% cell death, read-out: IC50; for GI50: read-out: GI50
# Description: (§1) The in vitro antiproliferative activities of the novel triazolo[3,4-b]thiadiazole derivatives were estimated in ten well-established human cancer cell lines including three ovarian (SKOV-3, UWB 1.289, and UWB 1.289+BRCA1), five colorectal adenocarcinoma (DLD-1, HT-29, LS174T, LoVo, and SW403), and two prostate cancer cell lines (PC-3 and DU-145). All cancer cell lines were obtained from the American Type Culture Collection (ATCC) and cultivated in different culture media according to the instructions. The required growth mediums were supplemented with 10% fetal bovine serum and 1% streptomycin/penicillin. All cancer cell lines were cultured as monolayers and maintained at 37 °C, 5% CO2 in humidified air.
# (§2) Stock solutions of all tested compounds were prepared by dissolving the required amount of substances in the DMSO solvent to reach the desired concentration of 15 mM.
# (§3) To evaluate the in vitro antiproliferative activity of the triazolo[3,4-b]thiadiazole derivatives, 3-(4,5-dimethylthiazol-2-yl)-2,5-diphenyltetrazolium bromide (MTT) assay was assessed. According to the protocol, cells were firstly seeded into a 96-well plate at a density of 8 × 10^3 cells and grown for 24 h at 37 °C, 5% CO2 in humidified air. Subsequently, cells were treated with the tested compounds in a specific range of drug concentrations (1–100 μΜ). Following 48 h of drug exposure, the culture media were discarded and replaced with 100 μL of fresh medium. Afterwards, 50 μL of dissolved MTT in phosphate-buffered saline (PBS) solution (5 mg/mL) were added in each well and cells were incubated for 3 h at 37 °C, 5% CO2 in humidified air. Incubation time was followed by MTT discard and the addition of 100 μL of DMSO solvent so that the formazan crystals could be dissolved. The absorbance of the converted dye was immediately measured at a wavelength of 540 nm on an ELISA reader (VersaMax Microplate Reader, Orleans, CA, USA).
# (§4) The in vitro anticancer effect of a tested compound on cell viability was determined by three dose–response parameters termed GI50, TGI, and IC50. More specifically, the GI50 value indicates the required concentration of the compound that impels 50% cell growth inhibition, the TGI value corresponds to the concentration that induces 100% cell growth inhibition, and the IC50 value is the concentration that causes 50% cell death. The two parameters GI50 and TGI represent the cytostatic activity, whereas IC50 reflects the cytotoxic effect of a drug. To estimate the three parameters, nine absorbance measurements were required including control 24 h (Ct24), control 72 h (Ct72), and the mean of cell survival in all seven drug concentrations (Tt72). The percentage growth inhibition was calculated according to National Cancer Institute’s (NCI) protocol: [(Tt72x) − (Ct24)/(Ct72) − (Ct24)] × 100 for concentrations for which Tt72x > Ct24 and [(Tt72x) − (Ct24)/Ct24] × 100 for concentrations for which Tt72x < Ct24. GI50 was calculated from [(Tt72x) − (Ct24)/(Ct72) − (Ct24)] × 100 = 50, TGI was calculated from [(Tt72x) − (Ct24)/(Ct72) − (Ct24)] × 100 = 0, and IC50 was calculated from [(Tt72x) − (Ct24)/Ct24] × 100 = 50. All the experiments were carried out in triplicate.
# In vivo acute toxicity = settings: both sexes, mouse, in vivo, ip; CB17 SCID mice, single i.p. injection, 30 days observation, estimated graphically
# Protocol: (§5) CB17 severe combined immunodeficient (SCID) male and female mice were used for toxicity and antitumor activity studies. Mice were obtained from National Center for Scientific Research (NCSR) Demokritos, Institute of Biology, Athens, Greece. CB17 SCID mice were fed water and an irradiated standard rodent diet ad libitum and housed under specific pathogen-free conditions. For ethical reasons, the weight and tumor volumes of the animals were measured twice a week during the experiment. In case of cachexia, suffering, or increase in the tumor volume up to 2000 mm^3, the animals were sacrificed by cervical disruption.
# (§6) For intraperitoneal (i.p.) treatment, stock solutions of the 3 tested compounds were prepared immediately before use. They were suspended in corn oil in the desired concentrations following initial dissolution in 10% dimethyl sulfoxide (DMSO). […] Briefly, the acute toxicity of the tested compounds was assessed for lethality in CB17 SCID mice and determined as previously described. […] Each dosage comprised a group of ten mice, including males and females, that received single i.p. injections.
# CB17 SCID mice = assay: In vivo acute toxicity; settings: single i.p. injection, 30 days observation, estimated graphically
# Protocol: as §5, §6
# PC-3 = assay: MTT in vitro antiproliferative assay, PC-3; format: cell-based; settings: Homo sapiens, PC-3, MTT; for IC50: 48 h, 50% cell death, read-out: IC50; for GI50 / IC (TGI): 48 h drug exposure; for GI50: read-out: GI50; for IC (TGI): read-out: TGI
# Description: as §1, §2, §3, §4
# DU-145 = assay: MTT in vitro antiproliferative assay, DU-145; format: cell-based, human; settings: DU-145, MTT; for TGI / GI50: 48 h drug exposure; for IC50 / GI50: Homo sapiens; for IC50: 48 h, 50% cell death, read-out: IC50; for GI50: read-out: GI50
# Description: as §1, §2, §3, §4
# SW403 = assay: MTT in vitro antiproliferative assay, SW403; format: cell-based, human; settings: for TGI: 48 h drug exposure; for IC50 / GI50: Homo sapiens; for IC50: SW-403, 48 h, 50% cell death; for GI50: SW-403, 48 h drug exposure
# Description: as §1, §2, §3, §4
# SKOV-3 = assay: MTT in vitro antiproliferative assay, SKOV-3; format: cell-based; settings: Homo sapiens, SK-OV-3, SKOV-3, MTT; for IC50: 48 h, concentration causing 50% cell death, read-out: IC50; for GI50 / IC (TGI): 48 h drug exposure; for GI50: read-out: GI50; for IC (TGI): read-out: TGI
# Description: as §1, §2, §3, §4
smiles,measurement,setting,value
COc1cc(Cc2nnc3sc(C=Cc4ccc(F)cc4)nn23)c(S(=O)(=O)N(C)C)cc1OC [KA25],IC50,HT-29,> 100 µM
same,GI50,HT-29; 48 h drug exposure,1 ± 0.3 µM
same,LD50 at 30 days,In vivo acute toxicity,360 mg/kg
same,LD10,CB17 SCID mice,200 mg/kg
same,IC50,PC-3,> 100 µM
same,GI50,PC-3,14 ± 1 µM
same,IC (TGI),PC-3,22 ± 0.8 µM
same,TGI,DU-145,13.2 ± 0.5 μΜ
same,IC50,DU-145,27 ± 0.3 µM
same,GI50,DU-145,12.8 ± 1.3 µM
same,TGI,SW403,>100 μΜ
same,IC50,SW403,> 100 µM
same,GI50,SW403,4.8 ± 0.8 µM
same,IC50,SKOV-3,85 ± 2.1 µM
same,GI50,SKOV-3,15 ± 0.5 µM
same,IC (TGI),SKOV-3,50 ± 1.5 µM
COc1cc(Cc2nnc3sc(C=Cc4ccc(Cl)cc4)nn23)c(S(=O)(=O)N(C)C)cc1OC [KA26],IC50,HT-29,> 100 µM
same,GI50,HT-29; 48 h drug exposure,2 ± 0.76 µM
same,LD50 at 30 days,In vivo acute toxicity,160 mg/kg
same,LD10,CB17 SCID mice,100 mg/kg
same,IC50,PC-3,> 100 µM
same,GI50,PC-3,42.5 ± 1.5 µM
same,IC (TGI),PC-3,> 100 µM
same,TGI,DU-145,70 ± 1.3 μΜ
same,IC50,DU-145,> 100 µM
same,GI50,DU-145,7 ± 1 µM
same,TGI,SW403,>100 μΜ
same,IC50,SW403,> 100 µM
same,GI50,SW403,11 ± 0.8 µM
same,IC50,SKOV-3,> 100 µM
same,GI50,SKOV-3,20 ± 0.5 µM
same,IC (TGI),SKOV-3,> 100 µM
COc1cc(Cc2nnc3sc(-c4cc([N+](=O)[O-])ccc4[N+](=O)[O-])nn23)c(S(=O)(=O)N(C)C)cc1OC [KA39],TGI,HT-29; 48 h drug exposure,15.9 ± 0.55 μΜ
same,IC50,HT-29,19.5 ± 0.9 µM
same,GI50,HT-29; 48 h drug exposure,11.5 ± 0.8 µM
same,LD50 at 30 days,In vivo acute toxicity,100 mg/kg
same,LD10,CB17 SCID mice,70 mg/kg
same,IC50,PC-3,12 ± 0.1 µM
same,GI50,PC-3,5 ± 0.15 µM
same,IC (TGI),PC-3,8 ± 0.1 µM
same,TGI,DU-145,8 ± 0.4 μΜ
same,IC50,DU-145,10.3 ± 1.8 µM
same,GI50,DU-145,5.8 ± 0.2 µM
same,TGI,SW403,7.9 ± 0.7 μΜ
same,IC50,SW403,10 ± 0.76 µM
same,GI50,SW403,5.2 ± 0.2 µM
same,IC50,SKOV-3,25 ± 1.4 µM
same,GI50,SKOV-3,7 ± 0.2 µM
same,IC (TGI),SKOV-3,12 ± 0.8 µM
